These results are taken from patent US8362031B2, “Lonidamine analogues and treatment of polycystic kidney disease” (University of Kansas, priority 2004, dated 2013).

Data set [1] relates to ADPKD cyst-lining epithelial cells. As to the kind of experiment: MTT assay, proliferation of ADPKD cyst-lining epithelial cells. Type of data set: cell-based, human. The method, then:
Gamendazole (GMZ) was studied to determine the effect on cAMP and EGF treated ADPKD cyst-lining epithelial cells. The cells were treated with 100 uM cAMP or 25 ng/ml EGF to stimulate cell proliferation. Increasing concentrations of gamendazole were added to the medium of the cells. After 72 hours of treatment, MTT assays were performed.
For the MTT assay shown in FIG. 10A, ADPKD cyst-lining epithelial cells were plated at a density of 4×10^3 cells per well in a 96-well cell culture plate (n=6). Cells were serum-starved for 24 hours and treated either with 100 μM cAMP or 25 ng/ml EGF to stimulate cell proliferation. For the MTT assay shown in FIG. 10B, ADPKD cells were plated at a density of 2×10^3 cells per well in medium containing 1% FBS. After 24 hours, medium was changed to include 5% FBS. Increasing concentrations of GMZ were added to the medium for the cells of both FIGS. 10A and 10B to determine the effect of GMZ on cell proliferation. After 72 hours of treatment, MTT assays were performed by adding dye solution to the cells and stopping the reaction four hours later. Optical densities were measured using a spectrophotometer. In each group, results were expressed as a percentage of the control group (not treated with GMZ).

Data set [2] deals with ovarian (ID8), taxol-resistant ovarian (ID8), prostate (LNCaP and PC-3), kidney (293). As to the kind of experiment: Growth of cancer cell lines in vitro. Type of data set: cell-based. The following applies: all cell lines named. The method, then: When RC-MC-110 is added to a variety of cancer cells: ovarian (ID8), taxol-resistant ovarian (ID8), prostate (LNCaP and PC-3), kidney (293).

For data set [3], the system named is rats. As to the kind of experiment: Toxicology: organs sectioned and examined after dosing. Type of data set: in vivo.
Data set [4] concerns the target T1, HSP90 (Mus musculus, UniProt P11499).
T1 construct: Wash four 150 mm plates of TM4 cells (sertoli cells) or ID-8 cells (ovarian cancer) once with PBS; endogenous in cells; host or cells: TM4 Sertoli cells (mouse) and ID8 ovarian cancer cells, cell lysate
Put plainly: Affinity chromatography of cell lysate with biotinylated RC-MC-110, drug specific elution. Type of data set: binding. The following applies: TM4 sertoli cell (mouse) and ID8 cell lysates, avidin-sepharose column. The method, then:
To analyze the binding of the compounds of the present invention, the following procedure is used.
2. Wash four 150 mm plates of TM4 cells (sertoli cells) or ID-8 cells (ovarian cancer) once with PBS (20 mM concentration pH 7.5). Add enough volume to trypsinize cells. Aspirate and spin cells for 10 minutes at 4° C. at 250×g. Add enough Lysis buffer to the cells.
5. Remove the cell lysate and apply the sample into a 2 ml avidin-sepharose (tetramer form) column (pre-equilibrated with 50 mM Tris-HCl/0.001% NP-40, pH 7.4) to remove native biotinylated compounds.
6. Take 2.7 ml of pre-cleared cell lysate and incubate the sample with RC-MC-110.
Tube 1: 2.7 ml of pre-cleared lysate plus 150 μl of 1.2 mg/ml biotinylated RC-MC-110+150 μl of DMSO (maintaining the same amount of DMSO in both tubes).
Tube 2: 2.7 ml of pre-cleared lysate plus 150 μl of 1.2 mg/ml of biotinylated RC-MC-110 (RC-MC-150, see structure below), and add 150 μl of 12 mg/ml RC-MC-110 stock. Incubate the sample overnight at […] on a rocking platform (or gentle stirring) with gentle agitation.
7. Load samples on an avidin-sepharose column pre-equilibrated with buffer (50 mM Tris-HCl pH 7.4, 0.1% NP-40=TD buffer). Wash column until background is reached.
8. Wash column with 2.5 ml of 0.6 mg/ml of RC-MC-110 in TD buffer (stock 12 mg/ml) until peak elutes (if any) and stable background. Pool fractions.

“Also recorded” adds a separate entry of the source.

T1 sequence (P11499 whole entry): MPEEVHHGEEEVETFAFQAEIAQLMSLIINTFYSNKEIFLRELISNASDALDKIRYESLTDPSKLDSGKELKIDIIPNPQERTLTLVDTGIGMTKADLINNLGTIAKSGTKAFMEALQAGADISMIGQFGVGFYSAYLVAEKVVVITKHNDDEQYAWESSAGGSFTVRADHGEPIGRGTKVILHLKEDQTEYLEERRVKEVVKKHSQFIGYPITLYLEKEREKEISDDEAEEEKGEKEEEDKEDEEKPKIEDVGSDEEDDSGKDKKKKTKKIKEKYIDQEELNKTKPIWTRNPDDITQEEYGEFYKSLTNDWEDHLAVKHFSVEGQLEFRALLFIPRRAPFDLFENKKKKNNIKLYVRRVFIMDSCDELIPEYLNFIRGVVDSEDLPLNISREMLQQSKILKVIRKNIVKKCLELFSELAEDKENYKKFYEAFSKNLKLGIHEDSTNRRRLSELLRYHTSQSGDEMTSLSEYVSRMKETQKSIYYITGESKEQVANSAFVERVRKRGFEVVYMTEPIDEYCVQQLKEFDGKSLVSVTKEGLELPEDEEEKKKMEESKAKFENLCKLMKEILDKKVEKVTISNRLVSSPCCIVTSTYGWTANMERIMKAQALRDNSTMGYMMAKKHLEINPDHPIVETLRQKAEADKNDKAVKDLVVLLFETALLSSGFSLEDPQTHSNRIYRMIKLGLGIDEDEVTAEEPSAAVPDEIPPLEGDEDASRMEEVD

As for `O=C(O)CCc1nn(Cc2ccc(Cl)cc2Cl)c2cc(C(F)(F)F)ccc12` [GMZ, 3-[1-(2,4-dichlorobenzyl)-6-trifluoromethyl-1H-indazol-3-yl]-propionic acid], the “EGF-induced proliferation of ADPKD cells (MTT)” value in data set [1] (25 ng/ml EGF, 1 uM to 25 uM GMZ for 72 h, dose-dependent) was “significantly inhibited”. Besides, the “cell proliferation at 10 μM” value in data set [1] (10 μM) is on record as “no effect on cell proliferation”. Also, the “cAMP-induced proliferation of ADPKD cells (MTT)” value in data set [1] (100 μM cAMP, 1 uM to 25 uM GMZ for 72 h, dose-dependent) was “significantly inhibited”. Also, the “Cell proliferation of ADPKD cells with increasing concentration (MTT, FIGS. 10A and 10B)” value in data set [1] (cAMP, EGF or 5% FBS medium, 72 hours) was “more effectively inhibited cell proliferation as the concentration was increased”.
Take `O=C(O)/C=C/c1nn(Cc2ccc(Cl)cc2Cl)c2cc(C(F)(F)F)ccc12` [RC-MC-110, trans 3-[1-(2,4-dichlorobenzyl)-6-trifluoromethyl-1H-indazol-3-yl]-acrylic acid]: the “Growth of cancer cell lines in vitro” value in data set [2] was “inhibited by RC-MC-110 in a dose-dependent manner”. Besides, the “Toxicology: liver, lung, pancreas, spleen, heart and kidney (histology)” value in data set [3] (6 mg/kg, follow-up experiment, findings per animal) is “The liver did have isolated, scattered, small necrotic patches, resembling what is often found in subacute hepatic necrosis”; in data set [3] (12 mg/kg, follow-up experiment, findings per animal), “The liver did have isolated, scattered, small necrotic patches, resembling what is often found in subacute hepatic necrosis; also recorded: The liver contained small, patchy areas of necrosis resembling what is often described for subacute hepatic necrosis; also recorded: The lungs also had multiple, small hemorrhagic areas around the respiratory and terminal bronchioles”; in data set [3] (25 mg/kg, two animals examined, findings per animal), “liver, lung, pancreas, spleen, heart and kidney all appear within normal limits”; in data set [3] (200 mg/kg, two animals examined, findings per animal), “liver, lung, pancreas, spleen, heart and kidney all appear within normal limits”; in data set [3] (oral 1.5 mg/kg, two animals, corn oil), “the liver showed a small number of randomly scattered, small necrotic patches, but was otherwise normal”; in data set [3] (oral 1.5 mg/kg, two animals, corn oil, 1.5 mg/kg), “The other animal receiving 1.5 mg/kg appeared normal”. Further, in data set [3] (oral 6 mg/kg, 3 mg/kg, 1 mg/kg and 0.5 mg/kg, two animals from each dose level, corn oil), the “Toxicology: liver, lung, pancreas, spleen, heart and kidney (histology)” value is “liver, lung, pancreas, spleen, heart and kidney all appeared within normal limits”. Moreover, the “Binding of HSP90” value in data set [4] is recorded as “bind heat shock 90 proteins; also recorded: drug specific elution of Hsp90”.
